Assay results published in patent US20160041192A1 (Ameritox, Ltd., priority 2014, published 2016).

Legend:
[1] = human, in vivo
Experimental: (§1) Samples were subsequently vortexed and centrifuged prior to the injection of 5 μL on the QQQ. Each patient sample was analyzed twice to ensure accuracy.
(§2) Samples were subsequently vortexed and centrifuged prior to the injection of 5 μL on the QQQ.
as §2, §1, §2, §2, §2, §2, §2

[2] = human urine; major defined by ≧10% total drug exposure (Baselt 2014); cited from earlier work
[3] = cited from earlier work
[4] = post oral dosing; cited from earlier work
[5] = humans; cited from earlier work
[6] = Urine test of patients prescribed Seroquel after enzymatic hydrolysis with recombinant β-glucuronidase, QQQ; assay type: in vivo, human; details: patient prescribed Seroquel, various doses
Experimental: 100 μL of each patient specimen was diluted with 400 μL of a “master mix” that included 1.6 μg/mL of quetiapine-D8 (internal standard), 0.06 M phosphate buffer, and at least 1450 U of a recombinant β-glucuronidase enzyme.

O=C(O)COCCN1CCN(C2=Nc3ccccc3Sc3ccccc32)CC1 [Quetiapine Carboxylic Acid]
Urine concentration, Pre-Hydrolysis Results, Subject HR [1]: >5000 ng/mL
Urine concentration, Pre-Hydrolysis Results, Subject T [1]: 6 ng/mL
Urine concentration, Pre-Hydrolysis Results, Subject W [1]: 5 ng/mL
Urine concentration, Pre-Hydrolysis Results, Subject eight [1]: >5000 ng/mL
Urine concentration, Pre-Hydrolysis Results, Subject eighteen [1]: >5000 ng/mL
Urine concentration, Pre-Hydrolysis Results, Subject eleven [1]: >5000 ng/mL
Urine concentration, Pre-Hydrolysis Results, Subject fifteen [1]: >5000 ng/mL
Urine concentration, Pre-Hydrolysis Results, Subject five [1]: >5000 ng/mL
Urine concentration, Pre-Hydrolysis Results, Subject four [1]: >5000 ng/mL
Urine concentration, Pre-Hydrolysis Results, Subject fourteen [1]: >5000 ng/mL
Urine concentration, Pre-Hydrolysis Results, Subject nine [1]: >5000 ng/mL
Urine concentration, Pre-Hydrolysis Results, Subject nineteen [1]: 5 ng/mL
Urine concentration, Pre-Hydrolysis Results, Subject one [1]: >5000 ng/mL
Urine concentration, Pre-Hydrolysis Results, Subject seven [1]: >5000 ng/mL
Urine concentration, Pre-Hydrolysis Results, Subject seventeen [1]: >5000 ng/mL
Urine concentration, Pre-Hydrolysis Results, Subject sixteen [1]: >5000 ng/mL
Urine concentration, Pre-Hydrolysis Results, Subject thirteen [1]: >5000 ng/mL
Urine concentration, Pre-Hydrolysis Results, Subject three [1]: >5000 ng/mL
Urine concentration, Pre-Hydrolysis Results, Subject twelve [1]: >5000 ng/mL
Urine concentration, Pre-Hydrolysis Results, Subject twenty [1]: >5000 ng/mL
Urine concentration, Pre-Hydrolysis Results, Subject twenty-five [1]: >5000 ng/mL
Urine concentration, Pre-Hydrolysis Results, Subject twenty-four [1]: >5000 ng/mL
Urine concentration, Pre-Hydrolysis Results, Subject twenty-three [1]: 10 ng/mL
Urine concentration, Pre-Hydrolysis Results, Subject twenty-two [1]: >5000 ng/mL
abundance in urine [2]: major

OCCOCCN1CCN(C2=Nc3ccccc3Sc3ccccc32)CC1 [Quetiapine, 2-(2-(4-dibenzo[b,f][1,4]thiazepine-11-yl-1-piperazinyl)ethoxy) ethanol, reference compound]
Urine concentration, Pre-Hydrolysis Results, Average [1]: 838 ng/mL
Urine concentration, Pre-Hydrolysis Results, Maximum Value [1]: 4999 ng/mL
Urine concentration, Pre-Hydrolysis Results, Median Value [1]: 287 ng/mL
Urine concentration, Pre-Hydrolysis Results, Minimum Value [1]: 17 ng/mL
Urine concentration, Pre-Hydrolysis Results, Subject HR [1]: 4574 ng/mL
Urine concentration, Pre-Hydrolysis Results, Subject eight [1]: 120 ng/mL
Urine concentration, Pre-Hydrolysis Results, Subject eighteen [1]: 755 ng/mL
Urine concentration, Pre-Hydrolysis Results, Subject eleven [1]: 17 ng/mL
Urine concentration, Pre-Hydrolysis Results, Subject fifteen [1]: 1118 ng/mL
Urine concentration, Pre-Hydrolysis Results, Subject five [1]: 77 ng/mL
Urine concentration, Pre-Hydrolysis Results, Subject four [1]: 187 ng/mL
Urine concentration, Pre-Hydrolysis Results, Subject fourteen [1]: 917 ng/mL
Urine concentration, Pre-Hydrolysis Results, Subject one [1]: 269 ng/mL
Urine concentration, Pre-Hydrolysis Results, Subject seven [1]: 873 ng/mL
Urine concentration, Pre-Hydrolysis Results, Subject seventeen [1]: 315 ng/mL
Urine concentration, Pre-Hydrolysis Results, Subject six [1]: 77 ng/mL
Urine concentration, Pre-Hydrolysis Results, Subject sixteen [1]: 97 ng/mL
Urine concentration, Pre-Hydrolysis Results, Subject thirteen [1]: 1137 ng/mL
Urine concentration, Pre-Hydrolysis Results, Subject three [1]: 304 ng/mL
Urine concentration, Pre-Hydrolysis Results, Subject twelve [1]: 361 ng/mL
Urine concentration, Pre-Hydrolysis Results, Subject twenty [1]: 208 ng/mL
Urine concentration, Pre-Hydrolysis Results, Subject twenty-one [1]: 137 ng/mL
Urine concentration, Pre-Hydrolysis Results, Subject twenty-two [1]: 222 ng/mL
Urine concentration, Pre-Hydrolysis Results, Subject two [1]: 4999 ng/mL
time to steady state serum concentrations ([3]; days of dosing): 2 days
increase of bioavailability ([3]; dosing with a light meal (~300 calories)): ~20%
mean elimination half-life ([3]; in vivo): 6 h
absorption ([3]; oral administration): rapidly absorbed
share of the total radioactivity in plasma [4]: 24%
excreted in the feces [5]: 20%
recovered in the urine [5]: 73%
Urine concentration, Post-Hydrolysis Results, Subject T [6]: 86 ng/mL
Urine concentration, Post-Hydrolysis Results, Subject W [6]: ND (Indicates that the listed parent or metabolite compound was either not detected or detected below the established cut-off of 5 ng/mL indicating a negative result for that particular subject.)
Urine concentration, Post-Hydrolysis Results, Subject eleven [6]: 4059 ng/mL
Urine concentration, Post-Hydrolysis Results, Subject fifteen [6]: >5000 ng/mL
Urine concentration, Post-Hydrolysis Results, Subject four [6]: 2928 ng/mL
Urine concentration, Post-Hydrolysis Results, Subject nine [6]: 1494 ng/mL
Urine concentration, Post-Hydrolysis Results, Subject nineteen [6]: 29 ng/mL
Urine concentration, Post-Hydrolysis Results, Subject seventeen [6]: >5000 ng/mL
Urine concentration, Post-Hydrolysis Results, Subject sixteen [6]: 3019 ng/mL
Urine concentration, Post-Hydrolysis Results, Subject twenty [6]: >5000 ng/mL
Urine concentration, Post-Hydrolysis Results, Subject twenty-five [6]: 2579 ng/mL
Urine concentration, Post-Hydrolysis Results, Subject twenty-three [6]: 14 ng/mL

[O-][S+]1c2ccccc2N=C(N2CCN(CCOCCO)CC2)c2ccccc21 (centres unmarked) [Quetiapine Sulfoxide]
Urine concentration, Pre-Hydrolysis Results, Average [1]: 2318 ng/mL
Urine concentration, Pre-Hydrolysis Results, Maximum Value [1]: >5000 ng/mL
Urine concentration, Pre-Hydrolysis Results, Median Value [1]: 2143 ng/mL
Urine concentration, Pre-Hydrolysis Results, Subject HR [1]: >5000 ng/mL
Urine concentration, Pre-Hydrolysis Results, Subject eight [1]: >5000 ng/mL
Urine concentration, Pre-Hydrolysis Results, Subject eighteen [1]: >5000 ng/mL
Urine concentration, Pre-Hydrolysis Results, Subject eleven [1]: 2143 ng/mL
Urine concentration, Pre-Hydrolysis Results, Subject fifteen [1]: 740 ng/mL
Urine concentration, Pre-Hydrolysis Results, Subject five [1]: 4484 ng/mL
Urine concentration, Pre-Hydrolysis Results, Subject four [1]: >5000 ng/mL
Urine concentration, Pre-Hydrolysis Results, Subject fourteen [1]: >5000 ng/mL
Urine concentration, Pre-Hydrolysis Results, Subject nine [1]: >5000 ng/mL
Urine concentration, Pre-Hydrolysis Results, Subject one [1]: >5000 ng/mL
Urine concentration, Pre-Hydrolysis Results, Subject seven [1]: >5000 ng/mL
Urine concentration, Pre-Hydrolysis Results, Subject seventeen [1]: >5000 ng/mL
Urine concentration, Pre-Hydrolysis Results, Subject six [1]: 1252 ng/mL
Urine concentration, Pre-Hydrolysis Results, Subject sixteen [1]: 2971 ng/mL
Urine concentration, Pre-Hydrolysis Results, Subject thirteen [1]: >5000 ng/mL
Urine concentration, Pre-Hydrolysis Results, Subject three [1]: >5000 ng/mL
Urine concentration, Pre-Hydrolysis Results, Subject twelve [1]: >5000 ng/mL
Urine concentration, Pre-Hydrolysis Results, Subject twenty [1]: >5000 ng/mL
Urine concentration, Pre-Hydrolysis Results, Subject twenty-five [1]: >5000 ng/mL
Urine concentration, Pre-Hydrolysis Results, Subject twenty-four [1]: >5000 ng/mL
Urine concentration, Pre-Hydrolysis Results, Subject twenty-one [1]: >5000 ng/mL
Urine concentration, Pre-Hydrolysis Results, Subject twenty-two [1]: >5000 ng/mL
Urine concentration, Pre-Hydrolysis Results, Subject two [1]: >5000 ng/mL
abundance in urine [2]: major
Urine concentration, Post-Hydrolysis Results, Subject W [6]: ND (Indicates that the listed parent or metabolite compound was either not detected or detected below the established cut-off of 5 ng/mL indicating a negative result for that particular subject.)

c1ccc2c(c1)N=C(N1CCNCC1)c1ccccc1S2 [N-Desalkyl Quetiapine, N-Desalkyl Quetiapine (Norquetiapine)]
share of the total radioactivity in plasma [4]: 10%
abundance in urine [2]: only small quantities
